Assay results from patent publication US20140213513A1 (Sanofi, priority 2012, published 2014).
pEC50: −log10 of the molar value. Values after ≈ are worked out from the molar mass of the structure shown. Read-outs that look alike come from different tables or passages of the source. *1 amine or outer side, *2 acyl side, *3 side chain or, on linkers, in order; H or OH if unused. Where a SMILES comes first, the peptide text is derived from it. Side-chain parts run from the residue outwards. [ ]: non-standard residue; d: D form. The star is where a group is joined. γGlu = O=C(O)[C@H](CCC(=O)[*:2])N[*:1]; Stearoyl = CCCCCCCCCCCCCCCCCC(=O)*; Palmitoyl = CCCCCCCCCCCCCCCC(=O)*; Aib = CC(C)(N)C(=O)O

Experiments:
[1] = target: T1, human GIP receptor (hGIP R) (Homo sapiens, UniProt P48546); assay: cAMP response of HEK-293 cells stably expressing human GIP receptor (HTRF); type: cell-based; conditions: Table 7; cAMP formation
T1 construct: expressed in transfected cells
T1 sequence (P48546 22-466): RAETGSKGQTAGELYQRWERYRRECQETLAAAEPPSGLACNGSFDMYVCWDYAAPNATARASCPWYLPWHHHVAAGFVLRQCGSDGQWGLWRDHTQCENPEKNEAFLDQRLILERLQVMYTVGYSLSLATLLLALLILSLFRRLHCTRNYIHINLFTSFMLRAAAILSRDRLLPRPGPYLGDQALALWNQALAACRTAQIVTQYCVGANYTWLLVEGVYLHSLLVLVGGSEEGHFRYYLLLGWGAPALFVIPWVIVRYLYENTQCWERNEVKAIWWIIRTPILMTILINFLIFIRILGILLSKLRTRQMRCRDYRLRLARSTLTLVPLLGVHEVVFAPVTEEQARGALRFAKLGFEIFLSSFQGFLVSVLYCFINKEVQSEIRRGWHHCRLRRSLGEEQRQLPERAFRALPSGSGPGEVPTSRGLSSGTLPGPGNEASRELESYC
Summary of the method: (§1)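 Cells grown overnight in DMEM/10% FBS, detached with accutase, resuspended in HBSS with 20 mM HEPES, 0.1% BSA and 2 mM IBMX at 400000 cells/ml. Test compound added and incubated 30 minutes at room temperature; cellular cAMP then measured by HTRF.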

[2] = target: T2, human GLP-1 receptor (hGLP-1 R) (Homo sapiens, UniProt P43220); assay: cAMP response of HEK-293 cells stably expressing human GLP-1 receptor (HTRF); type: cell-based; conditions: Table 7; cAMP formation
T2 construct: expressed in transfected cells
Summary of the method: as §1

[3] = Solubility testing in buffer (HPLC-UV of supernatant); type: physicochemical
[4] = target: T3, human glucagon receptor (hGLUC R) (Homo sapiens, UniProt P47871); assay: cAMP response of HEK-293 cells stably expressing human glucagon receptor (HTRF); type: cell-based; conditions: Table 7; cAMP formation
T3 construct: expressed in transfected cells
Summary of the method: as §1

[5] = pH 4.5, target concentration 1.0 mg/mL, read-out: Solubility (pH 4.5)
[6] = pH 7.4, target concentration 1.0 mg/mL, read-out: Solubility (pH 7.4)

T3 sequence (P47871 26-477): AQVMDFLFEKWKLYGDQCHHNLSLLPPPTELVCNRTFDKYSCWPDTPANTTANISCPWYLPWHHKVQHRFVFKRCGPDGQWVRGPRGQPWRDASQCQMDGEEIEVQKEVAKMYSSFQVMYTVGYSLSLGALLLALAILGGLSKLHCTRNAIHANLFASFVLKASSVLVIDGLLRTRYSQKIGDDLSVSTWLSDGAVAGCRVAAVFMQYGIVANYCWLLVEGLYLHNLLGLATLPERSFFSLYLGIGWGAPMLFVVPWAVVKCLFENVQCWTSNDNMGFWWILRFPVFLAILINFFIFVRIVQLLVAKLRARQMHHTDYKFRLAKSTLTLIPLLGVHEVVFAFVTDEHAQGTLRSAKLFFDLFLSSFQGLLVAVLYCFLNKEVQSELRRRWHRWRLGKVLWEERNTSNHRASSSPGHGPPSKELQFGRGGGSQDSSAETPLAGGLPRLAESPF
T2 sequence (P43220 24-463): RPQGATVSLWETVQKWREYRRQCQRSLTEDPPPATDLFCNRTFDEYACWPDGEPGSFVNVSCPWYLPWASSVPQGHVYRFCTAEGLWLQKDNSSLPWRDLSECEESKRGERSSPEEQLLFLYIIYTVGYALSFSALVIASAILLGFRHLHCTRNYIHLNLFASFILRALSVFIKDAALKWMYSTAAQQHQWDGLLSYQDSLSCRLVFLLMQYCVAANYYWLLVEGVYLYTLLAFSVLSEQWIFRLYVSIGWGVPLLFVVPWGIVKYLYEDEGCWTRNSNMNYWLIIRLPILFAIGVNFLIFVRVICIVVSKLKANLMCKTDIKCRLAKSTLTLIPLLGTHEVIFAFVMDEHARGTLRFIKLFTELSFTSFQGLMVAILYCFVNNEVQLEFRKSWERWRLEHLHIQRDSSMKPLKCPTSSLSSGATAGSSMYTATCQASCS

Structure (SMILES) | pEC50 [1] | pEC50 [2] | solubility at 2 h [3, 5] | solubility at 2 h [3, 6] | pEC50 [4]
CCCCCCCCCCCCCCCCCC(=O)N[C@@H](CCC(=O)NCCCC[C@H](NC(=O)[C@H](CCC(N)=O)NC(=O)[C@@H](NC(=O)[C@H](CO)NC(=O)[C@H](CC(C)C)NC(=O)[C@H](CC(=O)O)NC(=O)[C@H](CO)NC(=O)[C@@H](NC(=O)[C@H](Cc1ccccc1)NC(=O)[C@@H](NC(=O)CNC(=O)[C@H](Cc1c[nH]cn1)NC(=O)C(C)(C)NC(=O)[C@@H](N)Cc1ccc(O)cc1)[C@@H](C)O)[C@@H](C)O)[C@@H](C)CC)C(=O)N[C@@H](CCC(=O)O)C(=O)N[C@@H](CCCCN)C(=O)N[C@@H](CCCNC(=N)N)C(=O)N[C@@H](C)C(=O)N[C@@H](C)C(=O)NC(C)(C)C(=O)N[C@@H](CCC(=O)O)C(=O)N[C@@H](Cc1ccccc1)C(=O)N[C@H](C(=O)N[C@@H](CCC(=O)O)C(=O)N[C@@H](Cc1c[nH]c2ccccc12)C(=O)N[C@@H](CC(C)C)C(=O)N[C@@H](CCCCN)C(=O)N[C@@H](CC(N)=O)C(=O)N[C@H](C(=O)NCC(=O)N1CCC[C@H]1C(=O)N[C@@H](CO)C(=O)N[C@@H](CO)C(=O)NCC(=O)N[C@@H](C)C(=O)N1CCC[C@H]1C(=O)N1CCC[C@H]1C(=O)N1CCC[C@H]1C(=O)N[C@@H](CO)C(N)=O)[C@@H](C)O)[C@@H](C)CC)C(=O)O [SEQ ID NO: 18, Y-Aib-H-G-T-F-T-S-D-L-S-I-Q-K(yE-x70)-E-K-R-A-A-Aib-E-F-I-E-W-L-K-N-T-G-P-S-S-G-A-P-P-P-S-NH2] (H-Y[Aib]HGTFTSDLSIQK([γGlu-Stearoyl])EKRAA[Aib]EFIEWLKNTGPSSGAPPPS-NH2) | 11.02 | 10.74 | 966 µg/mL (≈ 209 µM) | 768 µg/mL (≈ 166 µM) | 11.02
CCCCCCCCCCCCCCCC(=O)N[C@@H](CCC(=O)NCCCC[C@H](NC(=O)[C@H](CCC(N)=O)NC(=O)[C@@H](NC(=O)[C@H](CO)NC(=O)[C@H](CC(C)C)NC(=O)[C@H](CC(=O)O)NC(=O)[C@H](CO)NC(=O)[C@@H](NC(=O)[C@H](Cc1ccccc1)NC(=O)[C@@H](NC(=O)CNC(=O)[C@H](CCC(N)=O)NC(=O)C(C)(C)NC(=O)[C@@H](N)Cc1ccc(O)cc1)[C@@H](C)O)[C@@H](C)O)[C@@H](C)CC)C(=O)N[C@@H](CCC(=O)O)C(=O)N[C@@H](CCCCN)C(=O)N[C@@H](CCCNC(=N)N)C(=O)N[C@@H](C)C(=O)N[C@H](C(=O)NC(C)(C)C(=O)N[C@@H](CC(C)C)C(=O)N[C@@H](Cc1ccccc1)C(=O)N[C@H](C(=O)N[C@@H](CCC(=O)O)C(=O)N[C@@H](Cc1c[nH]c2ccccc12)C(=O)N[C@@H](CC(C)C)C(=O)N[C@@H](CCCCN)C(=O)N[C@@H](C)C(=O)NCC(=O)NCC(=O)N1CCC[C@H]1C(=O)N[C@@H](CO)C(=O)N[C@@H](CO)C(=O)NCC(=O)N[C@@H](C)C(=O)N1CCC[C@H]1C(=O)N1CCC[C@H]1C(=O)N1CCC[C@H]1C(=O)N[C@@H](CO)C(N)=O)[C@@H](C)CC)C(C)C)C(=O)O [SEQ ID NO: 24, Y-Aib-Q-G-T-F-T-S-D-L-S-I-Q-K(yE-x53)-E-K-R-A-V-Aib-L-F-I-E-W-L-K-A-G-G-P-S-S-G-A-P-P-P-S-NH2] (H-Y[Aib]QGTFTSDLSIQK([γGlu-Palmitoyl])EKRAV[Aib]LFIEWLKAGGPSSGAPPPS-NH2) | 10.98 | 10.72 | > 1000 µg/mL | 976 µg/mL (≈ 217 µM) | 9.55
CCCCCCCCCCCCCCCC(=O)N[C@@H](CCC(=O)NCCCC[C@H](NC(=O)[C@H](CCC(N)=O)NC(=O)[C@@H](NC(=O)[C@H](CO)NC(=O)[C@H](CC(C)C)NC(=O)[C@H](CC(=O)O)NC(=O)[C@H](CO)NC(=O)[C@@H](NC(=O)[C@H](Cc1ccccc1)NC(=O)[C@@H](NC(=O)CNC(=O)[C@H](CCC(=O)O)NC(=O)C(C)(C)NC(=O)[C@@H](N)Cc1ccc(O)cc1)[C@@H](C)O)[C@@H](C)O)[C@@H](C)CC)C(=O)N[C@@H](CCC(=O)O)C(=O)N[C@@H](CCC(=O)O)C(=O)N[C@@H](CCCNC(=N)N)C(=O)N[C@@H](C)C(=O)N[C@@H](C)C(=O)N[C@@H](Cc1c[nH]cn1)C(=O)N[C@@H](CCC(=O)O)C(=O)N[C@@H](Cc1ccccc1)C(=O)N[C@H](C(=O)N[C@@H](CCC(=O)O)C(=O)N[C@@H](Cc1c[nH]c2ccccc12)C(=O)N[C@@H](CC(C)C)C(=O)N[C@@H](CCCCN)C(=O)N[C@@H](CCCNC(=N)N)C(=O)NC(C)(C)C(=O)NCC(=O)N1CCC[C@H]1C(=O)N[C@@H](CO)C(=O)N[C@@H](CO)C(=O)NCC(=O)N[C@@H](C)C(=O)N1CCC[C@H]1C(=O)N1CCC[C@H]1C(=O)N1CCC[C@H]1C(=O)N[C@@H](CO)C(N)=O)[C@@H](C)CC)C(=O)O [SEQ ID NO: 37, Y-Aib-E-G-T-F-T-S-D-L-S-I-Q-K(yE-x53)-E-E-R-A-A-H-E-F-I-E-W-L-K-R-Aib-G-P-S-S-G-A-P-P-P-S-NH2] | 10.92 | 11.18 | > 1000 µg/mL | > 1000 µg/mL | 7.92
CCCCCCCCCCCCCCCC(=O)N[C@@H](CCC(=O)NCCCC[C@H](NC(=O)[C@H](CCC(N)=O)NC(=O)[C@H](CCCCN)NC(=O)[C@H](CO)NC(=O)[C@H](CC(C)C)NC(=O)[C@H](CC(=O)O)NC(=O)[C@H](CO)NC(=O)[C@@H](NC(=O)[C@H](Cc1ccccc1)NC(=O)[C@@H](NC(=O)CNC(=O)[C@H](CCC(N)=O)NC(=O)C(C)(C)NC(=O)[C@@H](N)Cc1ccc(O)cc1)[C@@H](C)O)[C@@H](C)O)C(=O)N[C@@H](CCC(=O)O)C(=O)N[C@@H](CO)C(=O)N[C@@H](CCCCN)C(=O)N[C@@H](C)C(=O)N[C@@H](C)C(=O)N[C@@H](CCC(N)=O)C(=O)N[C@@H](CCC(=O)O)C(=O)N[C@@H](Cc1ccccc1)C(=O)N[C@H](C(=O)N[C@@H](CCC(=O)O)C(=O)N[C@@H](Cc1c[nH]c2ccccc12)C(=O)N[C@@H](CC(C)C)C(=O)N[C@@H](CCCCN)C(=O)N[C@@H](C)C(=O)NCC(=O)NCC(=O)N1CCC[C@H]1C(=O)N[C@@H](CO)C(=O)N[C@@H](CO)C(=O)NCC(=O)N[C@@H](C)C(=O)N1CCC[C@H]1C(=O)N1CCC[C@H]1C(=O)N1CCC[C@H]1C(=O)N[C@@H](CO)C(N)=O)[C@@H](C)CC)C(=O)O [SEQ ID NO: 40, Y-Aib-Q-G-T-F-T-S-D-L-S-K-Q-K(yE-x53)-ESKAAQEFIEWLKAGGPSSGAPPPS-NH2] (H-Y[Aib]QGTFTSDLSKQK([γGlu-Palmitoyl])ESKAAQEFIEWLKAGGPSSGAPPPS-NH2) | 10.27 | 11.26 | 986 µg/mL (≈ 220 µM) | 993 µg/mL (≈ 222 µM) | 10.65
CCCCCCCCCCCCCCCCCC(=O)N[C@@H](CCC(=O)NCCCC[C@H](NC(=O)[C@H](CCC(N)=O)NC(=O)[C@@H](NC(=O)[C@H](CO)NC(=O)[C@H](CC(C)C)NC(=O)[C@H](CC(=O)O)NC(=O)[C@H](CO)NC(=O)[C@@H](NC(=O)[C@H](Cc1ccccc1)NC(=O)[C@@H](NC(=O)CNC(=O)[C@H](CCC(=O)O)NC(=O)C(C)(C)NC(=O)[C@@H](N)Cc1ccc(O)cc1)[C@@H](C)O)[C@@H](C)O)[C@@H](C)CC)C(=O)N[C@@H](CCC(=O)O)C(=O)N[C@@H](CO)C(=O)N[C@@H](CCCCN)C(=O)N[C@@H](C)C(=O)N[C@@H](C)C(=O)N[C@@H](CCC(N)=O)C(=O)N[C@@H](CCC(=O)O)C(=O)N[C@@H](Cc1ccccc1)C(=O)N[C@H](C(=O)N[C@@H](CCC(=O)O)C(=O)N[C@@H](Cc1c[nH]c2ccccc12)C(=O)N[C@@H](CC(C)C)C(=O)N[C@@H](CCCCN)C(=O)N[C@@H](C)C(=O)NCC(=O)NCC(=O)N1CCC[C@H]1C(=O)N[C@@H](CO)C(=O)N[C@@H](CO)C(=O)NCC(=O)N[C@@H](C)C(=O)N1CCC[C@H]1C(=O)N1CCC[C@H]1C(=O)N1CCC[C@H]1C(=O)N[C@@H](CO)C(N)=O)[C@@H](C)CC)C(=O)O [SEQ ID NO: 42, Y-Aib-E-G-T-F-T-S-D-L-S-I-Q-K(yE-x70)-ESKAAQEFIEWLKAGGPSSGAPPPS-NH2] (H-Y[Aib]EGTFTSDLSIQK([γGlu-Stearoyl])ESKAAQEFIEWLKAGGPSSGAPPPS-NH2) | 10.89 | 11.21 | > 1000 µg/mL | 936 µg/mL (≈ 208 µM) | 8.07
